Literature values in PMC4457528, “Identification of Novel Small Molecule Inhibitors of Oncogenic RET Kinase” (PLoS ONE, 2015).

Columns and labels:
[1] = system: RET and its gate-keeper mutants; conditions: cited from earlier work
RET Y806C = system: RET Y806C; parameters: method as in PMID 15184865, PMID 19029224; conditions: cited from earlier work

SMILES | inhibition of RET and its gate-keeper mutants [1] | fold increase of in vitro IC50 dose for RET by Y806C (RET Y806C) [fold]
Cc1ccc(C(=O)Nc2ccc(CN3CCN(C)CC3)c(C(F)(F)F)c2)cc1C#Cc1cnc2cccnn12 [ponatinib] | potently inhibits | 
COc1cc2c(Nc3ccc(Br)cc3F)ncnc2cc1OCC1CCN(C)CC1 [vandetanib] |  | 10
